According to patent US8283377B2, “Method for inhibiting blood vessel stenosis” (China Medical University, priority 2011, dated 2012):
Values joined by “and” are separate entries in the source; they are usually repeats but may differ in a detail not shown here. Equal values may be shown once. Marks after values point to notes of the source that are not given here.

Tests used:
[1] = system: rat aortic smooth muscle cell line A7r5; test: Inhibiting proliferation of smooth muscle cells - cell cycle analysis (propidium iodide flow cytometry); type: cell-based; details: 24 hours
Procedure: (§1) A rat aortic smooth muscle cell line A7r5 was used to carry out the present experiment. A Dulbecco's modified Eagle's medium (DMEM, purchased from Biowest) was used as a general culture medium. The medium was added with 4 mM of L-glutamine, 1.5 g/L sodium bicarbonate, 4.5 g/L glucose, and 10 wt % fetal bovine serum. The A7r5 smooth muscle cells were cultured in a 75 cm^2 petri dish, and 12 mL of the culture medium was added thereinto. The cells were placed and incubated in a cell incubator containing 5 vol % of carbon dioxide at 37° C. After the dish was fully covered by the grown cells, the medium was replaced once every 3 days, and 0.5 wt % trypsin was used for subculture.
(§2) In addition, a culture medium containing n-butylidenephthalide was prepared. Herein, n-butylidenephthalide was dissolved in dimethyl sulfoxide (purchased from Sigma), and solutions with n-butylidenephthalide concentrations of 0, 25, 50, 100, 150, and 200 mg/mL were prepared, and the solutions were stored at −20° C. When used to prepare a medium, the solutions were diluted by 1000 times with the general culture medium used for incubating smooth muscle cells to prepare a culture medium containing 0, 25, 50, 100, 150, or 200 μg/mL of n-butylidenephthalide.
An inhibition test on the cell cycle progression of smooth muscle cells was carried out. Because the cellular DNA content is different in each cell cycle phase, the amount of DNA can be used to evaluate the cell cycle phase in which the cell proceeds. In another aspect, because propidium iodide can bind to DNA, and it can emit red fluorescent light with a wavelength of 625 nm after being excited by light with a wavelength of 488 nm, thus, propidium iodide was used as a fluorescent staining agent in the present experiment, and the red fluorescent intensity represented the amount of DNA, thereby determining which phase the cell was in during the cell cycle.
The rat aortic smooth muscle cell line A7r5 was inoculated in a 6-hole culture dish (density: 1×10^5 cells/hole). After the cells were cultured for 24 hours, the medium was replaced by a medium containing n-butylidenephthalide with a concentration of 0, 25, or 50 μg/mL to culture the smooth muscle cells. After another 24 hours, the cells were fixed with 70 vol % alcohol, and a phosphate buffer solution (PBS) was used to rinse the cells. Finally, propidium iodide (a solution containing 955 μL 1×PBS, 5 μL Triton X-100 (0.5 wt %, purchased from Sigma), 20 μL RNase A (10 mg/mL, purchased from Sigma), and 20 μL propidium iodide (1 mg/mL, purchased from Sigma)) was used to stain the cells for 15 minutes. Then, a flow cytometry (FC500, Beckman) was used to scan and collect 10,000 cells. Multicycle for Windows software (Phoenix Flow Systems) was used to analyze cellular cell cycle.

[2] = system: rat aortic smooth muscle cell line A7r5; test: Inhibiting proliferation of smooth muscle cells - cell counting analysis (trypan blue); type: cell-based; details: 48 hours
Procedure: as §1, §2
The rat aortic smooth muscle cell line A7r5 was inoculated in a 6-hole culture dish (density: 1×10^5 cells/hole). After the cells were cultured for 24 hours, the medium was replaced by a medium containing n-butylidenephthalide with a concentration of 0, 25, 50, 100, 150, or 200 μg/mL to culture the smooth muscle cells. After another 48 hours, the cells were observed by an inverted microscope, and the cells were detached by 0.5 wt % trypsin. Then, 20 μL of the cell suspension was taken and mixed evenly with 20 μL trypan blue, and finally, 10 μL of the mixture was collected and added onto a blood cell counting plate. The cell number was counted by a microscope under 100× magnifications to evaluate the inhibition of n-butylidenephthalide on the growth of the smooth muscle cells.

[3] = system: carotid artery of Sprague-Dawley (SD) rats after balloon catheter injury; test: Animal test - treatment of carotid artery injury induced blood vessel stenosis; type: in vivo, rat; details: for Blood vessel neointimal layer area /middle layer area (intima/media ratio) / Blood vessel neointimal layer area: day 14
Procedure: Sprague-Dawley (SD) rats (purchased from BioLasco Taiwan Co. Ltd, Taipei) were used in the present experiment to carry out the animal test. The rats were bred in an environment with 12 hours light, followed by 12 hours dark, and fed to 10-weeks old (body weight: about 300 to 400 g). Then, carotid artery injury surgery and the following experiments were carried out. The present experiment followed the Animal Protection Act and the provisions of Animal Management Committee of National Dong Hwa University.
The SD rat was anesthetized by 320 mg/kg-body-weight chloral hydrate (purchased from Fluka), and then the abdominal area was faced upwards, and the limbs were fixed with a breathable tape on a surgery plate. The Casscells' method (Casscells et al., Migration of smooth muscle and endothelial cells. Critical events in restenosis, Circulation, 1992; 86; 723-729, which is incorporated hereinto by reference) was used to carry out the carotid artery injury surgery. First, the skin of the rat was cut open with a scissor from the midline of the neck jaw to the chest area, and then the connective tissue at the right side of the rat neck was separated from the muscle layer to expose the blood vessel next to the trachea, and the blood vessel is the common carotid artery. The right side common carotid artery, internal carotid artery, and external carotid artery were separated, and the connective tissue at the junction of these three blood vessels was completely striped. Then, the external carotid artery was tied up with a 2/0 sized silk thread, and the common carotid artery was clipped by a vascular clip to avoid heavy bleeding. A gap was made by cutting the external carotid artery with a microscopic scissor, and a balloon catheter (Cather French Size 2F, purchased from Edwards Lifescience) was implanted through the gap. The balloon catheter was inserted 5 cm into the common carotid artery, and 0.2 mL of a physiological saline solution was filled into the balloon catheter to expend the catheter. Then, the balloon catheter was pulled out to the gap of the external carotid artery, and the physiological saline solution was drawn out from the balloon catheter. After the common carotid artery was injured repeatedly for three times by this method, the gap of the external carotid artery and the bifurcation point between the external carotid artery and the common carotid artery were tied up with a 2/0 sized silk thread. Finally, the wound of the rat was stitched up and spread with an iodine solution. After the rat woke up, the carotid artery injury surgery was completed.
Two weeks after the carotid artery injury surgery, the rat was sacrificed with excess chloral hydrate (640 mg/kg-body weight). PBS (300 mL) was injected into the left ventricle of the rat using the heart perfusion method and flowed out from the right ventricle through systemic circulation. Neutral formalin (200 mL, 10 vol %) was injected into the left ventricle of the rat to immobilize the whole body tissue. The common carotid artery immobilized by formalin was removed and soaked in a 10 vol % neutral formalin solution.
The common carotid artery was divided into four sections and labeled with A, B, C, and D from the head to the heart. Each section was 4 mm in length and was placed in an embedding cassette, and then an automatic tissue processor (purchased from Sakura) was used to process the tissue. The process procedure was 1 hour in a 10 vol % formalin solution, 30 minutes in water, 1 hour in 80 vol % alcohol, 3 hours in 95 vol % alcohol, 4 hours in 100 vol % alcohol, 3 hours in xylene, and 3 hours in paraffin. After the tissue process procedure was completed, the tissue was wrapped by paraffin, and the tissue biopsy was carried out by a slicer (purchased from Lica) with a cut of 8 μm thickness. Immunohistochemical stain and H&E stain on the biopsy were carried out. […]

## CCC/C=C1\OC(=O)c2ccccc21 [n-butylidenephthalide]
[1]; 25 and 50 μg/mL
  effect on cell cycle of smooth muscle cells (in words): stagnate the smooth muscle cells in the G0/G1 phase
[1]; 25 μg/mL
  Ratio of cells in cell cycle phase G0/G1: 68.33 +/− 0.05%
  Ratio of cells in cell cycle phase G2/M: 11.3 +/− 1.25%
  Ratio of cells in cell cycle phase S: 20.33 +/− 2.05%
[1]; 50 μg/mL
  Ratio of cells in cell cycle phase G0/G1: 68.9% and 68.86 +/− 5.2%
  Ratio of cells in cell cycle phase G2/M: 12.1 +/− 1.15%
  Ratio of cells in cell cycle phase S: 19.0% and 19.00 +/− 4.3%
[2]; 25 μg/mL
  Growth rate: 0.56 +/− 0.06%
[2]; 50 μg/mL
  Growth rate: 0.32 +/− 0.04%
[2]; 100 μg/mL
  Growth rate: 0.25 +/− 0.03%
[2]; 150 μg/mL
  Growth rate: 0.12 +/− 0.04%
[2]; 200 μg/mL
  Growth rate: 0.10 +/− 0.02%
[2]; Rattus norvegicus, 25 μg/mL, read-out: inhibition rate of smooth muscle cell growth
  inhibition at 25 µg/mL: 43.6%
[2]; Rattus norvegicus, read-out: IC50 of smooth muscle cell growth
  IC50: 27 µg/mL and 143 µM
[3]; 60 mg/kg-body weight
  inhibition of blood vessel stenosis (in words): no significant inhibition effect
  proportion of the rats whose increased area of the blood vessel neointimal layer was under 1×10^5 μm^2: 0%
  Blood vessel neointimal layer area /middle layer area (intima/media ratio): 1.3 +/− 0.3
[3]; 60 mg/kg-body weight, n = 6
  number of rats with increased neointimal area 0~50,000 μm^2: 0
  number of rats with increased neointimal area 50,000~100,000 μm^2: 0
  number of rats with increased neointimal area 100,000~150,000 μm^2: 4
  number of rats with increased neointimal area Above 150,000 μm^2: 2
  proportion of rats with increased neointimal area 100,000~150,000 μm^2: 66.7%
  proportion of rats with increased neointimal area Above 150,000 μm^2: 33.3%
[3]; 150 mg/kg-body weight
  inhibition of blood vessel stenosis (in words): significantly be inhibited
  inhibition of blood vessel stenosis compared with the sham group (intima/media ratio): 36.7%
  inhibition of blood vessel stenosis compared with the sham group (neointimal layer area): 36.3%
  proportion of the rats whose increased area of the blood vessel neointimal layer was under 1×10^5 μm^2: 50%
[3]; 150 mg/kg-body weight, P < 0.05
  Blood vessel neointimal layer area /middle layer area (intima/media ratio): 0.81 +/− 0.14*
[3]; 150 mg/kg-body weight, n = 6
  number of rats with increased neointimal area 0~50,000 μm^2: 0
  number of rats with increased neointimal area 50,000~100,000 μm^2: 3
  number of rats with increased neointimal area 100,000~150,000 μm^2: 3
  number of rats with increased neointimal area Above 150,000 μm^2: 0
  proportion of rats with increased neointimal area 50,000~100,000 μm^2: 50%
  proportion of rats with increased neointimal area 100,000~150,000 μm^2: 50%
[3]; 300 mg/kg-body weight
  inhibition of blood vessel stenosis (in words): significantly be inhibited
  inhibition of blood vessel stenosis compared with the sham group (intima/media ratio): 57.8%
  inhibition of blood vessel stenosis compared with the sham group (neointimal layer area): 56.2%
  proportion of the rats whose increased area of the blood vessel neointimal layer was under 1×10^5 μm^2: 83.3%
[3]; 300 mg/kg-body weight, P < 0.01
  Blood vessel neointimal layer area /middle layer area (intima/media ratio): 0.54 +/− 0.24**
[3]; 300 mg/kg-body weight, n = 6
  number of rats with increased neointimal area 0~50,000 μm^2: 2
  number of rats with increased neointimal area 50,000~100,000 μm^2: 3
  number of rats with increased neointimal area 100,000~150,000 μm^2: 1
  number of rats with increased neointimal area Above 150,000 μm^2: 0
  proportion of rats with increased neointimal area 0~50,000 μm^2: 33.3%
  proportion of rats with increased neointimal area 50,000~100,000 μm^2: 50.0%
  proportion of rats with increased neointimal area 100,000~150,000 μm^2: 16.7%
[3]; carotid artery Section A, 60 mg/kg-body weight abdominal injection, days 1,3,5,7,9,11
  Blood vessel neointimal layer area: 164528 +/− 81467 μm^2
[3]; carotid artery Section A, 150 mg/kg-body weight abdominal injection
  Blood vessel neointimal layer area: 75272 +/− 36346 μm^2
[3]; carotid artery Section A, 300 mg/kg-body weight abdominal injection
  Blood vessel neointimal layer area: 53118 +/− 33403 μm^2
[3]; carotid artery Section B, 60 mg/kg-body weight abdominal injection
  Blood vessel neointimal layer area: 168355 +/− 37686 μm^2
[3]; carotid artery Section B, 150 mg/kg-body weight abdominal injection
  Blood vessel neointimal layer area: 119827 +/− 35005 μm^2
[3]; carotid artery Section B, 300 mg/kg-body weight abdominal injection
  Blood vessel neointimal layer area: 76551 +/− 45327 μm^2
[3]; carotid artery Section C, 60 mg/kg-body weight abdominal injection
  Blood vessel neointimal layer area: 138260 +/− 36681 μm^2
[3]; carotid artery Section C, 150 mg/kg-body weight abdominal injection
  Blood vessel neointimal layer area: 93111 +/− 19875 μm^2
[3]; carotid artery Section C, 300 mg/kg-body weight abdominal injection
  Blood vessel neointimal layer area: 61150 +/− 27899 μm^2
[3]; carotid artery Section D, 60 mg/kg-body weight abdominal injection
  Blood vessel neointimal layer area: 130852 +/− 77915 μm^2
[3]; carotid artery Section D, 150 mg/kg-body weight abdominal injection
  Blood vessel neointimal layer area: 85273 +/− 15262 μm^2
[3]; carotid artery Section D, 300 mg/kg-body weight abdominal injection
  Blood vessel neointimal layer area: 66654 +/− 23434 μm^2
[3]; whole carotid artery (Table 4), 60 mg/kg-body weight
  Blood vessel neointimal layer area: 150499 +/− 34951 μm^2
[3]; whole carotid artery (Table 4), 150 mg/kg-body weight, P < 0.01
  Blood vessel neointimal layer area: 93371 +/− 14693 ** μm^2
[3]; whole carotid artery (Table 4), 300 mg/kg-body weight, P < 0.01
  Blood vessel neointimal layer area: 64368 +/− 20641 ** μm^2
